The test system of data set [1] is UCI101 ovarian cancer cells. As to the kind of experiment: Alamar Blue cell growth inhibition, UCI101. The format is cell-based. The following applies: for relative potency / activity: UCI101, 48 hours. How it is done:
Cell growth was measured by AlamarBlue™ staining and the percentage of cell growth inhibition was calculated and compared with the control cells that were treated with 0.1% DMSO, the vehicles for the stilbene compounds.
Cells were treated with the tested drug for 2 days before analysis of cell growth by Alamar Blue™ staining. Cells treated with 0.1% DMSO were used as control and set as 100%.
(§1) (a) In vitro sensitivity of UCI101 cells toward three potential stilbene prodrugs, 5a-c, was tested in 96-well plates using Alamar Blue™ assays to determine cell growth inhibition. […] (b) 5b induces cell cycle change and apoptosis in UCI101 cells. Cells were incubated with 5b at 1, 3, 10 μM for 16 hours followed by PI staining and flow cytometry analysis. A subG0/1 population, representing apoptotic cells, appeared along with a decrease of the G1/G2 ratio after cells were treated with 3 μM 5b. Higher concentration (10 μM) of 5b completely killed cells, as was the case with stilbene 4a at […]. (c) Cells treated with stilbene 4a and 5b were stained with phospho-histone 3B, a mitotic marker. The positive signals of phospho-histone 3B were shown in green and nuclei were stained with DAPI in blue. […] (d) In vivo efficacy of 5b compared with stilbene 4a. Nude mice were injected with UCI101 ovarian cancer cells and treated with 7 doses of 5b,c or stilbene 4a every 2-3 days. Tumor volume was calculated and plotted against days.
(§2) Various cancer cell lines were grown in 96-well plates for drug sensitivity assays. Once cells achieved 50% confluence, the incubation media was changed to the same cell growth media with different concentrations of the tested compounds or vehicle alone. Cells were then incubated for 48 hours before the cell growth inhibition study. To determine the degree of cell growth inhibition, 1/10 volume of Alamar Blue™ solution was added to each well and optical density (OD) at 570 and 600 nm was determined. The percentage of growth inhibition was calculated according to the manufacturer's formula as follows: The percentage of growth is [(117216×A570)−(80586×A600)]/[(117216×A^o570)−(80586×A^o600)]×100. In this formula, A570 is the absorbance of the treated samples at 570 nm; A600 is the absorbance of the treated samples at 600 nm; A^o570 is the absorbance of the […] samples at 570 nm; and A^o600 is the absorbance of the untreated samples at 600 nm. The two constants, 117216 and 80586, are the extinction coefficients of Alamar Blue™ at 570 and 600 nm respectively. Each concentration was repeated in triplicate to minimize the error.
(§3) We first tested the cytotoxic effect of various stilbene derivatives for their in vitro efficacy of suppressing tumor cell proliferation. Cells were first plated in 96-well plates at 50% confluence and treated with 0, 0.01, 0.03, 0.1, 0.3, 1.0, 3.0, 10 μM concentrations of stilbene derivatives for 48 hours in triplicate. Alamar Blue™ reagent was added into each well at 1/10 volume and incubated for 2 hours before quantification of the absorbance at 570 and 600 nm.
(In general: Resazurin is reduced to fluorescent resorufin, in cell work by metabolically active cells.)

For data set [2], the system named is HL60 leukemic cells (xenograft). As to the kind of experiment: HL60 xenograft model in SCID mice. The format is in vivo. Particulars: 5 mg/kg/day for 4 days. How it is done: FIG. 20. Effect of stilbene 4a in vivo. (a) Induction of cell death in vivo by stilbene 4a. Tumor was harvested at 24 hours after treatment for TUNEL assay. (b) Histological sections of tumor. Tumor harvested at 24 hours after injection of stilbene 4a was analyzed by H & E staining. The area with lighter color is the necrotic region. (c) Tumor growth suppression. SCID mice were injected subcutaneously with 5×10^6 HL60 cells at each flank. Once the diameter of tumor reached 5 mm in diameter in majority of mice, mice were treated with 5 daily injection of stilbene 4a. Tumor volume was calculated by the long and short axis of tumor and plotted against days. Each group contains 5 mice.
HL60 leukemic cells were injected subcutaneously into ICR-scid mice (Taconic Inc.) on flank. After tumor becomes visible after 12 days, Mice will be treated with stilbene 4a by intravenous injection after dissolved in 10% DMSO in normal saline. For acute effect study, mice were sacrificed 24 hours after injection and tumor and bone marrow were harvested for histological staining and flow cytometry analysis. For long term effect study, stilbenes were injected intravenously from tail veins at 2 or 10 mg/kg for 5 consecutive days. Negative control mice were treated with 10% DMSO in normal saline and positive control mice were treated with Ara-C at 5 mg/kg. Tumor volume was measured twice a week for 4 weeks by the long and short axes of tumor. Volume was calculated by the formula ab^2/2, in which “a” represents the long axis and “b” the short axis of tumor. Mice were euthanized if the calculated tumor reached 10% of the body weight.

The next data set deals with Tubulin (>99% pure). Put plainly: tubulin polymerization assay (OD 340 nm). The format is biochemical. The following applies: OD340 nm; nocodazole and paclitaxel 10 μM. How it is done: FIG. 3a-d. Stilbenes inhibit tubulin polymerization. (a) Effect of stilbene 4a. Pure tubulin was incubated with various concentrations of stilbene 4a, 10 μM nocodazole, and 10 μM paclitaxel in the polymerization buffer. The OD at 340 nm was monitored every minute by SpectraMAX 250 and plotted against time. (b) Effect of stilbene 4c. (c) Comparison of same concentrations of stilbenes 4a, 4a trans, 4c and 4c trans with control. […] Tubulin was incubated with [^3H]-colchicine and various concentrations of different stilbenes for 20 min. Tubulin was then separated from the unbound [^3H]-colchicine by Microcon-30 and washed three times with PBS. The radioactivity of the tubulin was counted. […] All experiments were done in triplicates.
The tubulin polymerization assay kit was purchased from Cytoskeleton (Denver, Colo.). Tubulin (>99% pure) was mixed with general tubulin buffer (GTB, 80 mM PIPES pH 6.9, 2 mM MgCl2, 0.5 mM EGTA, and 1 mM GTP) in a 96-well plate at 37° C. Absorbance at 340 nm was measured every 1 min for 60 min by SpectraMAX 250 (Molecular Devices, Sunnyville, Calif.). Analysis of the results was performed by SoftMAX Pro version 1.2.0 from the same company.

Data set [3] deals with SNU423 hepatocellular carcinoma cells. As to the kind of experiment: Alamar Blue cell growth inhibition, SNU423. The format is cell-based. How it is done: Cell growth was measured by Alamar Blue™ staining and the OD absorbance at 570 and 600 nm was determined by a microplate reader. The percentage of cell growth inhibition was calculated and compared with the control cells that were treated with 0.1% DMSO, the vehicle for the stilbene compounds.
as §2, §3

Data set [4] deals with SKOV3 ovarian cancer cells. Put plainly: Alamar Blue cell growth inhibition, SKOV3. The format is cell-based. As to the method:
Cells were incubated with various concentrations of the compounds for 48 hours. Cell growth was measured by Alamar Blue™ staining and the percentage of cell growth inhibition was calculated and compared with the control cells that were treated with 0.1% DMSO, the vehicle for the stilbene compounds.
as §2

For data set [5], the system named is UCI101 ovarian cancer cells (xenograft). Put plainly: UCI101 xenograft in nude mice. The format is in vivo. As to the method:
as §1
We next tested whether 5b could be converted into stilbene 4a in circulation. […] Blood was collected at 20, 60 and 240 min after injection for spot check of stilbene 4a level in serum. […] The in vivo efficacy of 5b and 5c was compared to stilbene 4a in a pilot study using 5 mice in each group.

The text below walks through data of patent US7781580B2, “Stilbene derivatives as new cancer therapeutic agents” (Virginia Commonwealth University, priority 2007, dated 2010).

Counter-ions that a name gives are not always drawn. Where only a bound is given, the exact number is not on record here.

`C=CCOc1cc(/C=C\c2ccc(OC)c(N)c2)cc(OC)c1.Cl` [10e, (Z)-5-[2-(3-Allyloxy-5-methoxy-phenyl)-vinyl]-2-methoxy-phenylamine, hydrochloride]: the melting point (in general, the temperature, or range, at which the solid turns liquid) was 122 to 125 °C. The “relative potency / activity” value in data set [1] is “active but less effective than stilbene 4a”.

In turn, `COc1ccc(/C=C\c2ccc3[nH]ccc3c2)cc1N.O=C(O)C(=O)O` [14a, (Z)-5-[2-(1H-Indol-5-yl)-vinyl]-2-methoxy-phenylamine, oxalate salt] registered a melting point of 112 to 115 °C. Besides, the “relative potency / activity” value in data set [1] is “not active”.

Consider `Nc1ccn([C@@H]2O[C@H](CO)[C@@H](O)[C@@H]2O)c(=O)n1` [Ara-C, reference compound], for which, in data set [2], the adverse effect result is given as “Ara-C-induced conjunctivitis”.

As for `COc1cc(/C=C\c2ccc(OC)c(CN3C(=O)c4ccccc4C3=O)c2)cc(OC)c1` [3e, (Z)-2-{5-[2-(3,5-Dimethoxy-phenyl)-vinyl]-2-methoxy-benzyl}-isoindole-1,3-dione], the “effective concentration, cell growth suppression” value in data set [1] (UCI101) was more than 3 µM.

In turn, `CCOc1cc(/C=C/c2ccc(OC)c(N)c2)cc(OC)c1.Cl` yielded a melting point of 147 to 149 °C.

On to `COC(=O)Nc1nc2ccc(C(=O)c3cccs3)cc2[nH]1` [nocodazole, reference compound], for which the “effect on tubulin polymerization” value in the data set on Tubulin (>99% pure) is given as “suppressed”.

In the case of `COc1cc(/C=C\c2ccc(OC)c(C(=O)O)c2)cc(OC)c1` [4d, (Z)-5-[2-(3,5-Dimethoxy-phenyl)-vinyl]-2-methoxybenzoic acid.], in data set [3] (SNU423, 48 hours), the “effective concentration, blocking cell proliferation” value was more than 10 µM. In addition, the “activity” value in data set [4] (SKOV3) is given as “not active”.

`COc1cc2c(c(OC)c1OC)-c1ccc(OC)c(=O)cc1[C@@H](NC(C)=O)CC2` [colchicine, reference compound]: the “effective / active concentration” value in data set [4] (SKOV3, 48 hours) is 0.1 µM.

Consider `COc1cc(/C=C\c2ccc3ccn(C)c3c2)cc(OC)c1` [13b, (Z)-6-[2-(3,5-Dimethoxy-phenyl)-vinyl]-1-methyl-1H-indole], for which, in data set [1], the “relative potency / activity” value was “less potent than stilbene 4a by one log”.

Take `COc1cc(/C=C/c2ccc(OC)c(N)c2)cc(OC(C)C)c1.Cl`: the melting point lay within 134 to 136 °C.

As for `COc1cc(/C=C\c2ccc(OC)c(NC(=O)OCCOCCOCCO)c2)cc(OC)c1` [5c, (Z)-{5-[2-(3,5-Dimethoxy-phenyl)-vinyl]-2-methoxy-phenyl}-carbamic acid-2-[2-(2-hydroxy-ethoxy)-ethoxy]-ethyl ester], the “relative potency / activity” value in data set [1] is listed as “showed no activity”. Also, the “tumor growth versus control mice” value in data set [5] (7 doses every 2-3 days) was “tumor growth rate the same as that of control mice”. Further, in data set [5] (mouse, in vivo), the mouse weight entry was “did not show any significant change”.

As for `COc1cc(/C=C\c2ccc(OC)c(N)c2)cc(OCC(=O)O)c1` [10f, (Z)-{3-[2-(3-Amino-4-methoxy-phenyl)-vinyl]-5-methoxy-phenoxy}-acetic acid], the “relative potency / activity” value in data set [1] is “not active”.

Regarding `C=CCOc1cc(/C=C/c2ccc(OC)c(N)c2)cc(OC)c1.Cl`, the melting point was in the range of 137 to 140 °C.

Compound `CCOc1cc(/C=C\c2ccc(OC)c(N)c2)cc(OC)c1.Cl` [10b, (Z)-5-[2-(3-Ethoxy-5-methoxy-phenyl)-vinyl]-2-methoxy-phenylamine, hydrochloride] had a melting point of 127 to 131 °C. Further, the “relative potency / activity” value in data set [1] is reported as “active but less effective than stilbene 4a”.

In the case of `COc1cc(/C=C\c2ccc(OC)c(N)c2)cc(OC(C)C)c1.Cl`, the melting point is 120 to 122 °C.

Take `COc1cc(/C=C\c2ccc(OC)c(NC(=O)NCCN3CCOCC3)c2)cc(OC)c1` [5a, (Z)1-{5-[2-(3,5-Dimethoxy-phenyl)-vinyl]-2-methoxy-phenyl}-3-(2-morpholin-4-yl-ethyl)-urea, hydrochloride]: in data set [1], the “relative potency / activity” value is on record as “showed no activity”.

In the case of `COc1ccc(/C=C\c2ccc3c(ccn3C)c2)cc1N` [14b, (Z)-2-Methoxy-5-[2-(1-methyl-1H-indol-5-yl)-vinyl]-phenylamine], in data set [1], the “relative potency / activity” value was “less potent than stilbene 4a by one log”.

In the case of `COc1cccc2c1C(=O)c1c(O)c3c(c(O)c1C2=O)C[C@@](O)(C(=O)CO)C[C@@H]3O[C@H]1C[C@H](N)[C@H](O)[C@H](C)O1` [doxorubicin, reference compound], the “relative potency” value in data set [3] (SNU423) was “potency similar to that of 10a”.

`COc1cc(/C=C\c2ccc(OC)c(N)c2)cc(OCCO)c1` (as salt: hydrochloride) [10a, (Z)-2-{3-[2-(3-Amino-4-methoxy-phenyl)-vinyl]-5-methoxy-phenoxy}-ethanol, hydrochloride]: the melting point was in the range of 157 to 159 °C.
